# Source: ChEMBL document CHEMBL3137667, “[Drug-induced liver injury; fourteenth updated edition of the bibliographic database of liver injuries and related drugs]” (Gastroenterol Clin Biol, 2004)
# Legend:
# [1] = human, serum
# [2] = human
# [3] = Times to onset, minimal and maximal, observed in the indexed observations. [column 'DELAI' in source]; conditions: human
# [4] = human; remark: listed apart in the source
# [5] = Highest frequency of acute liver toxicity observed during clinical trials, expressed as a percentage. [column '% AIGUE' in source]; conditions: human
# [6] = Highest frequency of moderate liver toxicity observed during clinical trials, expressed as a percentage. [column '% BIOL' in source]; conditions: human
# [7] = human; remark: listed apart in the source
# [8] = human; remark: listed apart in the source
# [9] = human; remark: listed apart in the source
# [10] = human, serum, 4383 h
# [11] = human; remark: listed apart in the source
# [12] = human, serum; remark: listed apart in the source
# [13] = human; remark: listed apart in the source
# [14] = human; remark: listed apart in the source
# [15] = human; remark: listed apart in the source
# 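Throughout, for Hepatotoxicity (association with vascular disease): count of indexed literature references reporting vascular liver injury in humans, e.g. peliosis hepatitis, hepatic veno-occlusive disease or Budd-Chiari syndrome.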
# 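Throughout, for Hepatotoxicity (benign tumour): value is a count of indexed literature references citing a benign tumour confirmed by histopathology.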
# 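Throughout, for Hepatotoxicity (choleostasis): human cholestatic liver injury, shown by histopathology or by peak ALT or AST elevation over alkaline phosphatase ratio below 2, value counts indexed literature reports.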
# 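Throughout, for Hepatotoxicity (chronic liver disease): chronic liver injury confirmed by histopathology or persistently raised serum aminotransferase activity beyond 6 months, value given as the count of indexed literature references.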
# 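Throughout, for Hepatotoxicity (cirrhosis): value is a count of indexed literature references reporting cirrhosis confirmed by histopathology.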
# 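Throughout, for Hepatotoxicity (cytolytic): human cytolytic liver injury, shown by histopathology or by a ratio above 5 of peak ALT or AST elevation to alkaline phosphatase elevation, value counts indexed references.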
# 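Throughout, for Hepatotoxicity (granulomatous hepatitis): value is a count of indexed literature references reporting granulomatous liver disease confirmed by histopathology.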
# 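Throughout, for Hepatotoxicity (malignant tumour): malignant tumour confirmed by histopathology, value gives the count of indexed literature references reporting it.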
# 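Throughout, for Hepatotoxicity (severe hepatitis): human clinical data: severe hepatitis, meaning potentially life-threatening liver failure or clinically observed cases, the value counts how many indexed literature references report it.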
# 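Throughout, for Hepatotoxicity (steatosis): steatosis confirmed by histopathology, value is the count of indexed references.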
Compound,Hepatotoxicity (moderate) [1],Hepatotoxicity (severe hepatitis) [2],Hepatotoxicity (time to onset) [3],Hepatotoxicity (cirrhosis) [4],Hepatotoxicity (acute) [5] [%],Hepatotoxicity (moderate) [6] [%],Hepatotoxicity (steatosis) [7],Hepatotoxicity (malignant tumour) [8],Hepatotoxicity (cytolytic) [9],Hepatotoxicity (chronic liver disease) [10],Hepatotoxicity (choleostasis) [11],Hepatotoxicity (acute) [12],Hepatotoxicity (association with vascular disease) [13],Hepatotoxicity (benign tumour) [14],Hepatotoxicity (granulomatous hepatitis) [15]
C=CCC(C(=O)NC(N)=O)C(C)C (stereo not given) [APRONAL],0,0,2 days - 2 years,0,0,0,0,0,0,0,0,2,0,0,2
CN(C)CC/C=C1/c2ccccc2Sc2ccc(Cl)cc21 [CHLORPROTHIXENE],0,0,1 week,0,0,0,0,0,0,0,1,1,0,0,0
MUROMONAB-CD3,0,0,1 days,0,0,0,0,0,1,0,0,1,0,0,0
C[C@H]1CC(=O)C[C@@H]2CC[C@H]3[C@@H]4CC[C@H](O)[C@@]4(C)CC[C@@H]3[C@]21C [MESTEROLONE],0,0,2 years,0,0,0,0,0,1,0,0,1,0,0,0
COCCCOc1ccnc(C[S+]([O-])c2nc3ccccc3[nH]2)c1C (stereo not given) [RABEPRAZOLE],0,1,4 weeks,0,0,0,0,0,1,0,0,1,0,0,0
CC(=O)[C@@]1(O)CC[C@H]2[C@@H]3C=C(C)C4=CC(=O)CC[C@@H]4[C@H]3CC[C@@]21C [NOMEGESTROL],0,2,4 months - 5 months,0,0,0,0,0,2,0,0,2,0,0,0
C[C@H](O)C(=O)Nc1c(I)c(C(=O)NC(CO)CO)c(I)c(C(=O)NC(CO)CO)c1I [IOPAMIDOL],0,1,0.021 days,0,0,0,0,0,1,0,0,1,0,0,0
Cc1ccc2c(c1)C(N1CCN(C)CC1)=Nc1ccccc1S2 [METIAPINE],2,0,2 weeks - 2 months,0,0,0,0,0,1,0,0,1,0,0,0
O=C(c1ccccc1)c1ccc2n1CCC2C(=O)O (stereo not given) [KETOROLAC],1,0,1 day - 10 days,0,1,32,0,0,1,0,1,1,0,0,0
O=C(NCCN1CCN(c2cccc3c2OC[C@H](CO)O3)CC1)c1ccc(F)cc1 [FLESINOXAN],1,0,6 weeks,0,0,12.5,0,0,0,0,0,0,0,0,0
C[C@H]1COc2c(N3CCN(C)CC3)c(F)cc3c(=O)c(C(=O)O)cn1c23.C[C@H]1COc2c(N3CCN(C)CC3)c(F)cc3c(=O)c(C(=O)O)cn1c23.O [LEVOFLOXACIN],17,5,2 days - 3 weeks,0,0,30,0,0,6,0,2,7,0,0,0
N[C@@H](C(=O)N[C@@H]1C(=O)N2C(C(=O)O)=C(Cl)CS[C@H]12)c1ccccc1 [CEFACLOR ANHYDROUS],20,0,8 days,0,2.2,10.7,0,0,1,0,2,2,0,0,0
CC(=O)N[C@H]1[C@H]([C@H](O)[C@H](O)CO)OC(C(=O)O)=C[C@@H]1N=C(N)N [ZANAMIVIR],2,0,8 days,0,0,14.5,0,0,0,0,0,0,0,0,0
O=NN(CCCl)C(=O)N[C@H]1C(O)O[C@H](CO)[C@@H](O)[C@@H]1O (stereo not given in full) [CHLOROZOTOCIN],2,0,1.5 months,0,0,33,0,0,1,0,1,2,0,0,0
